Measurements as given in publication PMC12582325 (Proceedings of the National Academy of Sciences of the …, 2025).
Where “and” joins values, the source holds several entries; their conditions need not be identical. Equal entries are not always repeated. Where a SMILES comes first, the peptide text is derived from it.

Experiments:
Fo.Ste2 [1] = format: cell-based, Fusarium oxysporum
Fo.Ste2 [2] = format: cell-based, Fusarium oxysporum; remark: listed apart in the source
Bb.Ste2 = format: cell-based, Beauveria bassiana
Hj.Hpr2 = format: cell-based, Hypocrea jecorina
[3] = system: no_GPCR (negative control lacking a GPCR); format: cell-based, Saccharomyces cerevisiae
[4] = system: F. oxysporum microconidia; experiment: Germination of F. oxysporum microconidia; format: cell-based, Fusarium oxysporum f. sp. lycopersici 4287; set-up: Germination of F. oxysporum microconidia (data of Sup.Fig.10): unit not given here; conditions: for Germination of F. oxysporum microconidia (data of Sup.Fig.10): 400 μM pheromone, 13 h, at least 300 spores counted
Protocol: For F. oxysporum microconidia production, the strain was grown for 3 to 4 d in liquid potato dextrose broth (PDB) at 28 °C and 170 rpm. Germination media ([10]) was used for assessing the spore germination. RE was prepared by removing 2-wk-old tomato plants from vermiculite and washing the roots to remove any adhering substrates ([11]).
Supplementary Figure 10. Germination of F. oxysporum microconidia after 13 h of incubation in Germination Media at a cell density of […] microconidia/mL. The assay was performed with 400 μM of pheromone. All points represent the average of three biological replicates in which at least 300 spores were counted. Statistical significance was determined through one-way analysis of variance (ANOVA) with Dunnett’s multiple comparisons (✱p ≤ 0.05).

[5] = system: F. oxysporum on tomato roots; experiment: Tomato root inoculation and fluorescence microscopy of infected roots; format: in vivo, Fusarium oxysporum / Solanum lycopersicum; conditions: exogenous addition of pheromone to microconidia; 3 d after inoculation; fluorescence microscopy
[6] = system: F. oxysporum infection of tomato plants; experiment: Tomato plant mortality assay; format: in vivo, Fusarium oxysporum / Solanum lycopersicum; conditions: groups of 10 plants; 3.2 × 10^6 microconidia/mL supplemented with pheromone once at inoculation; 50 d; Kaplan-Meier, log-rank
Protocol: Tomato plant infection assays were performed as described ([61]) with F. oxysporum microconidia and treatment inoculation as described above. Plants were transferred to a growth and plant survival was recorded daily for 50 d. Plant death was diagnosed as a complete collapse of the stem, without any green parts left. The Kaplan–Meier test was used to assess statistical significance of differences in survival among groups using the log-rank test in GraphPad Prism. The infection experiment was conducted two times with 10 plants per condition.

F. oxysporum germ tubes = conditions: gradient of 400 μM pheromone against the solvent (50% methanol); 13 h; water-agar; three biological replicates; Fig. 5A
Protocol: For the B. bassiana and F. oxysporum chemotropism assay and plant infection assays the pheromones were dissolved in 50% (v/v) MeOH to reach a concentration of 4,000 μM.
Fungal chemotropism was conducted as previously described ([11]). For each compound or combination of compounds tested, 300 hyphal tips were scored. All experiments were performed in three biological replicates.

[7] = system: F. oxysporum in tomato roots; experiment: Quantification of fungal DNA in tomato roots (qPCR); conditions: 3 d after inoculation, washed roots; compared to the untreated infected roots; three biological replicates
[8] = SC + added peptide, individual replicates (n=3), SC alone: 0, 0, 0

CC(C)C[C@H](NC(=O)[C@H](CS)NC(=O)[C@@H](N)Cc1c[nH]c2ccccc12)C(=O)N[C@@H](Cc1c[nH]c2ccccc12)C(=O)N[C@@H](C)C(=O)NCC(=O)N[C@@H](CCC(N)=O)C(=O)N1CCC[C@H]1C(=O)N[C@@H](CS)C(=O)N[C@@H](Cc1c[nH]c2ccccc12)C(=O)O [A4] (H-WCLWAGQPCW-OH; N-terminus assumed)
Activation of Fo.Ste2 biosensor, in words (Fo.Ste2 [1]): agonists for Fo.Ste2
logEC50 (Fo.Ste2 [1]): -9.288
EC50 (Fo.Ste2 [1]; read-out: half-maximal effective concentration (EC50)): 0.516 nM
Fold decline in diploids containing Fo.Ste2 (Fo.Ste2 [2]): 0.2 fold
Mean 2 (SC + peptide), Fo share of diploids (Fo.Ste2 [2]): 0.1003
Mean Diff, SC vs. + peptide (Fo.Ste2 [2]; n = 3): 0.3913
barcode qPCR of diploids, Fg.Ste2 x Hj.Pheromone (Fg.Ste2; SC + added peptide, individual replicates (n=3), SC alone: 0.003, 0.004, 0.001): 0
barcode qPCR of diploids, Fg.Ste2 x Fo.Pheromone (Fg.Ste2; SC + added peptide, individual replicates (n=3), SC alone: 0.005, 0.005, 0.013): 0.012 and 0.1 and 0.242
barcode qPCR of diploids, Fg.Ste2 x no_Pheromone (Fg.Ste2; SC + added peptide, individual replicates (n=3), SC alone: 0.012, 0.001, 0.003): 0.015 and 0.01 and 0.037
barcode qPCR of diploids, Fg.Ste2 x Bb.Pheromone (Fg.Ste2; SC + added peptide, individual replicates (n=3), SC alone: 0.012, 0.009, 0.006): 0.004 and 0 (2×)
barcode qPCR of diploids, Fg.Ste2 x Fg.Pheromone (Fg.Ste2; SC + added peptide, individual replicates (n=3), SC alone: 0.206, 0.237, 0.235): 0.014 and 0.192 and 0
Fold reduction of Fg.Ste2 and Fg.Pheromone interaction (Fg.Ste2; consortium in SC media, 10 μM external peptide): 0.3 fold
Fold increase in diploids containing Fg.Ste2 (Fg.Ste2; consortium in SC media, 10 μM external peptide, three biological replicates): without increasing
Fold increase in formation of diploids containing Bb.Ste2 (Bb.Ste2): 8.7 fold
Mean 2 (SC + peptide), Bb share of diploids (Bb.Ste2): 0.4075
Mean Diff, SC vs. + peptide (Bb.Ste2; n = 3): -0.3609
Fold increase in formation of diploids containing Hj.Hpr2 (Hj.Hpr2): 12.1 fold
Mean 2 (SC + peptide), Hj share of diploids (Hj.Hpr2): 0.02456
barcode qPCR of diploids, Hj.HPR2 x Bb.Pheromone (Hj.Hpr2): 0
barcode qPCR of diploids, Hj.HPR2 x no_Pheromone (Hj.Hpr2): 0
Mean Diff, SC vs. + peptide (Hj.Hpr2; n = 3): -0.02252
barcode qPCR of diploids, no_GPCR x Fg.Pheromone [3, 8]: 0.035 and 0.012 and 0
barcode qPCR of diploids, no_GPCR x Hj.Pheromone [3, 8]: 0.002 and 0 (2×)
barcode qPCR of diploids, no_GPCR x Bb.Pheromone ([3]; SC + added peptide, individual replicates (n=3), SC alone: 0, 0, 0.004): 0.013 and 0.091 and 0
barcode qPCR of diploids, no_GPCR x Fo.Pheromone ([3]; SC + added peptide, individual replicates (n=3), SC alone: 0, 0, 0.007): 0.014 and 0.039 and 0.054
barcode qPCR of diploids, no_GPCR x no_Pheromone ([3]; SC + added peptide, individual replicates (n=3), SC alone: 0.001, 0.001, 0): 0.04 and 0 and 0.015
Fold increase in diploids of the negative control lacking a GPCR ([3]; consortium in SC media, 10 μM external peptide, P = 0.013): 19 fold
Germination of F. oxysporum microconidia (data of Sup.Fig.10) ([4]; biological replicate 1 (first line)): 15
Germination of F. oxysporum microconidia (data of Sup.Fig.10) ([4]; biological replicate 2 (second line)): 33,88
Germination of F. oxysporum microconidia (data of Sup.Fig.10) ([4]; biological replicate 3 (third line)): 6,9
Mean Diff, Solvent vs. peptide ([4]; Sup.Fig.10, Dunnett's multiple comparisons test, n = 3): 25,18
Mean 2 (peptide), germination ([4]; Sup.Fig.10, Solvent control mean 43,77, mean of n = 3): 18,59
Effect on F. oxysporum microconidia germination, in words ([4]; exogenous addition of 400 μM peptide, 13 h in Germination Media, 3.2 x 106 microconidia/mL): significant reduction
Adhesion of F. oxysporum germ tubes among themselves or to tomato roots [5]: increased adhesion
Tomato plant survival [6]: no significant difference in plant survival
Chemotropic response in F. oxysporum germ tubes (F. oxysporum germ tubes): significant chemotropic response
Fungal biomass in inoculated tomato roots (qPCR of Fol4287 actin gene, 2^−ΔΔCt, normalized to tomato gapdh) [7]: significant reduction in fungal biomass
